Measured values as given in patent US20240316001A1, “USE OF PHARMACEUTICAL COMPOSITION COMPRISING CHLOROGENIC ACID IN PREPARATION OF DRUG FOR TREATING EARLY ALZHEIMER'S DISEASE” (SICHUAN JIUZHANG BIOLOGICAL SCIENCE AND TECHNOLOGY CO., LTD., priority 2021, published 2024).

Assays:
[1] = system: chronic cerebral hypoperfusion model rats (bilateral carotid artery ligation; simulated early AD); assay: Morris water maze orientation navigation experiment in chronic cerebral hypoperfusion model rats; type: in vivo, Sprague Dawley (SD) rats; settings: for average escape latency in Morris water maze experiment / searching distance in Morris water maze experiment: after 20 consecutive days of administration, CGA 60 mg/kg/d i.p., 3-coumaroylquinic acid alone 0.03 mg/kg/d i.p., sodium oligomannate 100 mg/kg/d gavage, mean±SD, n=10; for escape latency and searching distance of rats compared with the model group (in words): Morris water maze, over the 5-day experiment, versus model group
From the text: (§1) In this experiment, the occurrence of mild AD in humans after chronic cerebral hypoperfusion was simulated by performing bilateral carotid artery ligation in rats, and the intervention of the pharmaceutical composition according to the present invention on the learning and memory ability of these rats was observed, in order to investigate the therapeutic effect of the pharmaceutical composition according to the present invention on early AD.
(§2) 2.1. Experimental Animals: 6-8 Week Old, SPF Grade, Male Sprague Dawley (SD) Healthy Rats, Weighing 280-300 g.
(§3) A chronic cerebral hypoperfusion model was established by bilateral carotid artery ligation. Rats were acclimated to the environment for 1 week, and then fasted for 12 h and water-deprivated for 4 h before surgery. The rats were anesthetized with 0.4% pentobarbital sodium (0.5 mL/100 g i.p.), and fixed in a supine position on the operating table. Hair was removed from the skin in front of the neck. The naked skin was disinfected with iodine, and then the rats were incised in the middle of the neck. The subcutaneous superficial fascia was bluntly separated, and then the sternocleidomastoideole and sternohyoid muscle were carefully separated along both sides of the trachea, with arterial sheath visible; the bilateral common carotid arteries were separated and exposed with a glass needle, to bury the thread, and then double ligated with silk thread. The blood vessels between the two ligation points were cut off. The incision was sutured layer by layer and disinfected, followed by waiting for awakening of rats. During the operation, incandescent lamp irradiation was used to maintain the anal temperature of rats at 36.5° C.-37.5° C. After surgery, each rat was placed in a single cage to prevent suffocation.
(§4) 10 healthy SD rats with suitable body weight (within the required range) were randomly selected as the normal control group. 80 successfully modeled rats were randomly divided into 8 groups, with 10 rats in each group. They were named as follows: model control group (n=10), CGA treatment group (n=10), 3-coumaroylquinic acid treatment group (n=10), CGA+3-coumaroylquinic acid (100:0.01) treatment group (n=10), CGA+3-coumaroylquinic acid (100:0.05) treatment group (n=10), CGA+3-coumaroylquinic acid (100:0.5) treatment group (n=10), CGA+3-coumaroylquinic acid (100:1) treatment group (n=10), sodium oligomannate treatment group (n=10), and thus, there are […], along with the normal control group (n=10), for a total of 90 rats.
In this experiment, except for sodium oligomannate treatment group, which was administered by gavage, all other treatment groups were administered by intraperitoneal injection to each group of rats. The blank group and model group were given the solvent physiological saline by intraperitoneal injection. Rats in each treatment group were administrated one week after modeling surgery. Then, after 20 consecutive days of administration, the experiment was carried out. The administration continued during the experiment. At the same time, both the blank group and the model group were given an equal amount of physiological saline. […]

[2] = system: chronic cerebral hypoperfusion model rats (bilateral carotid artery ligation; simulated early AD); assay: Morris water maze space exploration experiment in chronic cerebral hypoperfusion model rats; type: in vivo, Sprague Dawley (SD) rats; settings: for searching time in the quadrant of the original platform compared with the model group (in words): Morris water maze space exploration, versus model group; for Time spent in the original platform quadrant: platform removed, after the orientation navigation experiment, CGA 60 mg/kg/d i.p., 3-coumaroylquinic acid alone 0.03 mg/kg/d i.p., sodium oligomannate 100 mg/kg/d gavage, mean±SD, n=10
From the text: as §1, §2, §3, §4
In this experiment, except for sodium oligomannate treatment group, which was administered by gavage, all other treatment groups were administered by intraperitoneal injection to each group of rats. […]

SMILES: O=C(/C=C/c1ccc(O)cc1)O[C@@H]1C[C@](O)(C(=O)O)C[C@@H](O)[C@H]1O [3-coumaroylquinic acid]
- average escape latency in Morris water maze experiment ([1]; Day 1): 98.1 ± 16.8 s
- searching distance in Morris water maze experiment ([1]; Day 1): 1127.3 ± 117.2 cm
- average escape latency in Morris water maze experiment ([1]; Day 2): 94.2 ± 15.3 s
- searching distance in Morris water maze experiment ([1]; Day 2): 954.5 ± 119.3 cm
- average escape latency in Morris water maze experiment ([1]; Day 3): 81.5 ± 13.7 s
- searching distance in Morris water maze experiment ([1]; Day 3): 892.6 ± 106.2 cm
- average escape latency in Morris water maze experiment ([1]; Day 4): 75.4 ± 16.3 s
- searching distance in Morris water maze experiment ([1]; Day 4): 577.1 ± 72.5 cm
- average escape latency in Morris water maze experiment ([1]; Day 5): 51.8 ± 14.2 s
- searching distance in Morris water maze experiment ([1]; Day 5): 407.1 ± 44.3 cm
- escape latency and searching distance of rats compared with the model group (in words) [1]: almost no improvement
- searching time in the quadrant of the original platform compared with the model group (in words) [2]: almost no extension
- Time spent in the original platform quadrant [2]: 30.2 ± 7.8 s

SMILES: O=C(/C=C/c1ccc(O)c(O)c1)O[C@@H]1C[C@](O)(C(=O)O)C[C@@H](O)[C@H]1O [CGA, 3-O-caffeoylquinic acid]
- average escape latency in Morris water maze experiment ([1]; Day 1): 95.4 ± 15.1 s
- searching distance in Morris water maze experiment ([1]; Day 1): 1125.6 ± 108.4 cm
- average escape latency in Morris water maze experiment ([1]; Day 2): 89.2 ± 17.5 s
- searching distance in Morris water maze experiment ([1]; Day 2): 944.3 ± 102.5 cm
- average escape latency in Morris water maze experiment ([1]; Day 3): 75.6 ± 12.6 s
- searching distance in Morris water maze experiment ([1]; Day 3): 844.8 ± 99.1 cm
- average escape latency in Morris water maze experiment ([1]; Day 4): 70.7 ± 14.5 s
- searching distance in Morris water maze experiment ([1]; Day 4): 560.9 ± 64.2 cm
- average escape latency in Morris water maze experiment ([1]; Day 5): 46.3 ± 10.6 s
- searching distance in Morris water maze experiment ([1]; Day 5): 395.2 ± 42.7 cm
- escape latency and searching distance of rats compared with the model group (in words) [1]: almost no improvement
- searching time in the quadrant of the original platform compared with the model group (in words) [2]: almost no extension
- Time spent in the original platform quadrant [2]: 32.6 ± 8.5 s
